Reference: ChEMBL document CHEMBL5465560, “Selectivity Literature for EUbOPEN Chemogenomic Library” (2024)
One block for each molecule: values may come before it.

Experiments:
[1] = molecular target: Phosphatidylinositol 4-kinase beta (Homo sapiens, UniProt Q9UBF8); experiment: Selectivity interaction (Kinase panel (literature)) EUB0001199aCl PI4KB; settings: at 1 µM
[2] = molecular target: T1, Aurora kinase C (Homo sapiens) (UniProt Q9UQB9); experiment: Selectivity interaction (SelectScreen profiling (Invitrogen)) EUB0000607a AURKC; settings: at 2 µM
T1 sequence (whole entry): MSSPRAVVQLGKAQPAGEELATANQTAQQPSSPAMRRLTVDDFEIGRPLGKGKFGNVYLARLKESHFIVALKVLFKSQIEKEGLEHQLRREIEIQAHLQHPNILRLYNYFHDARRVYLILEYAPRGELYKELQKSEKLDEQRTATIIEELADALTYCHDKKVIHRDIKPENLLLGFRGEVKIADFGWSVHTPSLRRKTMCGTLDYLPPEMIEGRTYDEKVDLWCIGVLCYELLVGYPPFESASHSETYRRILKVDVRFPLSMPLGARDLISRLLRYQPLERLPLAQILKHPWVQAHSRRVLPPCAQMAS

[3] = molecular target: T2, Ephrin type-B receptor 4 (Homo sapiens) (UniProt P54760); settings: at 10 µM
T2 sequence (whole entry): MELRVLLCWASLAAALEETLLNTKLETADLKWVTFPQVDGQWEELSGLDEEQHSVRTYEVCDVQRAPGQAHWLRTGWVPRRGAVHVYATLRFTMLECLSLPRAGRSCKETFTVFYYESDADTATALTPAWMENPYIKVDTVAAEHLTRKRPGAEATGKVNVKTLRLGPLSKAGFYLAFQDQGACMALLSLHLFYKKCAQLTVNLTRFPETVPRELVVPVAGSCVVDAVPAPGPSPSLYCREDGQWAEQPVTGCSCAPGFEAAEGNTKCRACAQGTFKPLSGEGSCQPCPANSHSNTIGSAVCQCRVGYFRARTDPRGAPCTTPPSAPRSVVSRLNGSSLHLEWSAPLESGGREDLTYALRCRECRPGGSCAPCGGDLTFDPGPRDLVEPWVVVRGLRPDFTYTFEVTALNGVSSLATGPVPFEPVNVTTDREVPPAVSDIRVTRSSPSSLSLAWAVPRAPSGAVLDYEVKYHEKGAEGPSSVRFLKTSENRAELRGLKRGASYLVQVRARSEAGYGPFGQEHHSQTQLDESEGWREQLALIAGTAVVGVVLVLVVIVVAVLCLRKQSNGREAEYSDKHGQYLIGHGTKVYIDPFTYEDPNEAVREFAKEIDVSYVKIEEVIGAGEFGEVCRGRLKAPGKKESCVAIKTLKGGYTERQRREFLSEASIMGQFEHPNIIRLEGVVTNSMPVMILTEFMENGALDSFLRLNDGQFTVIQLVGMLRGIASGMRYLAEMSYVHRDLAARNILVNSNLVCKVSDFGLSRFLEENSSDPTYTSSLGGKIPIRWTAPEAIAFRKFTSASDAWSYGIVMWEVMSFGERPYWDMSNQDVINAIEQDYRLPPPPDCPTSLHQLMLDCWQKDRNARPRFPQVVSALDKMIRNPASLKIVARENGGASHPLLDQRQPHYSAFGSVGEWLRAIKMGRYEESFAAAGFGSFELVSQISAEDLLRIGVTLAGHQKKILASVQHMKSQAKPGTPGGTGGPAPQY

[4] = molecular target: Receptor-type tyrosine-protein kinase FLT3 (Homo sapiens) (UniProt P36888); experiment: (§1) Selectivity interaction (ProQinase) EUB0000171b FLT3
[5] = test system: T3, Receptor-type tyrosine-protein kinase FLT3 (Homo sapiens), P36888 [D835Y]; experiment: as §1
T3 sequence (whole entry): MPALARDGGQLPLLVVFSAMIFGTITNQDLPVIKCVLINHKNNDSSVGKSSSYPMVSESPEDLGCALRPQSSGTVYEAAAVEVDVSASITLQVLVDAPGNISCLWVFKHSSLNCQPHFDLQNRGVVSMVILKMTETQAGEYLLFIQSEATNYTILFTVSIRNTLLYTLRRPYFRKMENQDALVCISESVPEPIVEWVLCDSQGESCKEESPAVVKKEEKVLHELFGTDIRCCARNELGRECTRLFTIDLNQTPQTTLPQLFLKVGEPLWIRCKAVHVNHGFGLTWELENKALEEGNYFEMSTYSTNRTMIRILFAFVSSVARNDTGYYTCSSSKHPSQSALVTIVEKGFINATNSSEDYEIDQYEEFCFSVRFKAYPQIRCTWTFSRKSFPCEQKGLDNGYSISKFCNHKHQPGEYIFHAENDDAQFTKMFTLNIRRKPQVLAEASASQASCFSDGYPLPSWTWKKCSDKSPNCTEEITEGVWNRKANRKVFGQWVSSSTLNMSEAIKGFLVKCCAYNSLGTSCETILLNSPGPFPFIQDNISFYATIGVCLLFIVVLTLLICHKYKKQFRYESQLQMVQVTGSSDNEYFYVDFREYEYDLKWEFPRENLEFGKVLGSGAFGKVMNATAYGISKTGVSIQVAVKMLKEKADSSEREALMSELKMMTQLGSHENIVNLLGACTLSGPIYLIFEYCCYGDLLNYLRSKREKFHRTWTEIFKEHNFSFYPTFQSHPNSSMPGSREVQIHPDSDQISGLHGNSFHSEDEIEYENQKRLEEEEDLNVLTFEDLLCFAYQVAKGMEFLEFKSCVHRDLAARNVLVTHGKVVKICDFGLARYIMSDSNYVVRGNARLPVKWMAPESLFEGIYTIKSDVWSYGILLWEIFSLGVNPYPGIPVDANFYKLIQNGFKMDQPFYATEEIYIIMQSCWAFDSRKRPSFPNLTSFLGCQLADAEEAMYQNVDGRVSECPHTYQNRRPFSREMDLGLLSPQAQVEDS

[6] = molecular target: Mitogen-activated protein kinase kinase kinase kinase 1 (Homo sapiens) (UniProt Q92918); experiment: Selectivity interaction (Ambit KINOMEscan and KiNATiv profiling in Jurkat cells) EUB0000090b MAP4K1; assay type: cell-based; settings: at 1 µM
Sequence of Mitogen-activated protein kinase kinase kinase kinase 1 (Homo sapiens) (Q92918 whole entry, looked up): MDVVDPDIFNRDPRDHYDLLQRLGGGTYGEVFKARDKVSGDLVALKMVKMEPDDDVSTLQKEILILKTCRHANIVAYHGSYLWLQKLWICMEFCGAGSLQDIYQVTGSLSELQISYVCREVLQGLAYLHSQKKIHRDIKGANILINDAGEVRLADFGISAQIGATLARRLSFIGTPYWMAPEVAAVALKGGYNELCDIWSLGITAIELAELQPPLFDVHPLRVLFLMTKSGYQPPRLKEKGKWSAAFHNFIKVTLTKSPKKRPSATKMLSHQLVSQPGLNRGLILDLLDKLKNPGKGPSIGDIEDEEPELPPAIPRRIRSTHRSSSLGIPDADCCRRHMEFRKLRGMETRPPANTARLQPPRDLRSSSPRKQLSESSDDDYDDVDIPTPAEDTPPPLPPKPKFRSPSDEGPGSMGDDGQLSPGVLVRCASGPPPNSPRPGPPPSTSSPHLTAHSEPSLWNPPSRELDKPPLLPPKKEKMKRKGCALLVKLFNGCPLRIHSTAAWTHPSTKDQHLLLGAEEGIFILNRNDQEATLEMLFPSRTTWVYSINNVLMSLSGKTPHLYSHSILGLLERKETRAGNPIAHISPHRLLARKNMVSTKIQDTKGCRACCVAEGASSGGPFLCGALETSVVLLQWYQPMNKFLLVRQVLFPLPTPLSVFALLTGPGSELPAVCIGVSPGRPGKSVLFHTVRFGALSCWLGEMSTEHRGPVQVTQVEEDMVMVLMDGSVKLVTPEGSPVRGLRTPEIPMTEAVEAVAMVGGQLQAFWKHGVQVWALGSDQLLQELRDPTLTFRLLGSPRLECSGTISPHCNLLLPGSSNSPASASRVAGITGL

[7] = molecular target: T4, Serine/threonine-protein kinase Nek2 (Homo sapiens) (UniProt P51955); experiment: Selectivity interaction (KinomeScan (DiscoverX)) EUB0001079a NEK2; settings: at 1 µM
T4 sequence (whole entry): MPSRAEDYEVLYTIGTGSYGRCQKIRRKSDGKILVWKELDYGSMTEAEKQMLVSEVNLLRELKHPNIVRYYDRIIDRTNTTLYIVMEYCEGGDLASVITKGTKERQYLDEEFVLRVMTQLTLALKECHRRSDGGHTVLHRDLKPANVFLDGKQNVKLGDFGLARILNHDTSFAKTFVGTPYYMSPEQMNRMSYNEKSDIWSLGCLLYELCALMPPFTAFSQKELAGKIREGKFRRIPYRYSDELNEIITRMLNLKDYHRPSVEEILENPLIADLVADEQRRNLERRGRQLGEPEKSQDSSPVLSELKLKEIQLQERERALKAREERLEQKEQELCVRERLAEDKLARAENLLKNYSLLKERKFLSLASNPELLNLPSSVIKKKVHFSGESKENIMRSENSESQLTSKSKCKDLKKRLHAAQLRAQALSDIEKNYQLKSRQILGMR

Sequence of Phosphatidylinositol 4-kinase beta (Q9UBF8 2-816 limits assumed): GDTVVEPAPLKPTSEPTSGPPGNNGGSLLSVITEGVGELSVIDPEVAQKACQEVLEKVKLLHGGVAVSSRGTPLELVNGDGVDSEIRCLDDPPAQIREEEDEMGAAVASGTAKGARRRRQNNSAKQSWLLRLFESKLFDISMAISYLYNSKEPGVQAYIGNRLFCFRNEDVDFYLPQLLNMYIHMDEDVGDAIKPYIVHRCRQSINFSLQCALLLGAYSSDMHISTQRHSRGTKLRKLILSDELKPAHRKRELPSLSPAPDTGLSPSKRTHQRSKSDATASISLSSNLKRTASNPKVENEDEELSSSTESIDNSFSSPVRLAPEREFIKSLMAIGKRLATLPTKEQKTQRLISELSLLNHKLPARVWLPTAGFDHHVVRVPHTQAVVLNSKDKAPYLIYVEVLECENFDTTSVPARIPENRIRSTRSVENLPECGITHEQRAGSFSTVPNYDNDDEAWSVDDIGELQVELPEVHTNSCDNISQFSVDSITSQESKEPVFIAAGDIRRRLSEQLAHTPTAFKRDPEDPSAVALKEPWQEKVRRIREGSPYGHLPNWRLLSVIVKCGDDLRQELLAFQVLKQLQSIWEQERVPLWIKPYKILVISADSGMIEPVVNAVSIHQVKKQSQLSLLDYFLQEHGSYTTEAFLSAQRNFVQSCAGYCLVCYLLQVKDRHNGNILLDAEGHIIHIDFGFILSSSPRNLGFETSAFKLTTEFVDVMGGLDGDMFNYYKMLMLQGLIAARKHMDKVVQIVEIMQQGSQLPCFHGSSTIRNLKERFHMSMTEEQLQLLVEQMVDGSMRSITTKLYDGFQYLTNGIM

% of inhibition [1]: -3%
Structure (SMILES): CN1Cc2nccc(-c3cn(C)nc3-c3ccc(F)cc3)c2C1=O

Structure (SMILES): CNC(=O)Nc1ccc(-c2nc(N3CC4CCC(C3)O4)c3cnn(C4CCC5(CC4)OCCO5)c3n2)cc1
% of inhibition [2]: 4%

% of control [3]: 100%
Structure (SMILES): CCN(CC)CCCCNc1ncc2cc(-c3cc(OC)cc(OC)c3)c(NC(=O)NC(C)(C)C)nc2n1

% of control ([4]; at 1 µM): 78%
% of control ([4]; at 5 µM): 49%
% of control ([5]; at 1 µM): 65%
% of control ([5]; at 5 µM): 32%
Structure (SMILES): C=CC(=O)Nc1cccc(C(=O)Nc2ccc(Nc3cc(-c4[nH]c(SC)nc4C)ccn3)cc2)c1

Structure (SMILES): CN(C)C/C=C/C(=O)Nc1ccc(C(=O)N2CCCC(Nc3ncc(Cl)c(-c4c[nH]c5ccccc45)n3)C2)cc1 (centres undefined)
% of control [6]: 80%

Structure (SMILES): Nc1cnc(N2CCc3cc(S(=O)(=O)Nc4c(F)cc(Cl)cc4F)cc(N4CCCC4=O)c32)nc1 [TP-020n]
% of control [7]: 89%
